As usually defined, the DC50 is the concentration at which degradation of the target reaches its halfway point.

The target in one test is PCSK9 (Homo sapiens, UniProt Q8NBP7). In words: Fluorescence polarization competition binding assay (probe: compound of Example 57). The note with it: 2 μM PCSK9, 50 nM compound of Example 57 as probe, overnight incubation; read-out: FP IC. The essentials:
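Competition fluorescence-polarization binding: 2 μM PCSK9 with 50 nM fluorescent probe in 20 mM HEPES pH 7.5, 150 mM NaCl, 1 mM CaCl2, 0.005% P-20, incubated with test compound overnight in the dark. Anisotropy read; % inhibition relative to DMSO wells and probe-without-PCSK9 wells.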

Test [1] concerns the target T1, HEK293 cells stably overexpressing PCSK9 (Homo sapiens, UniProt Q8NBP7).
T1 construct: expressed in transfected cells
In words: Protein degradation assay (Western Blot/Sally Sue assay). In kind it is cell-based. Particulars: 24 hrs compound treatment, serum free DMEM. As to the method:
Samples were run on the Sally Simple Western system from ProteinSimple (San Jose, Calif.) using default assay conditions. Briefly, 5×10^4 HEK293 cells stably overexpressing PCSK9 were seeded into Collagen I coated 96 well plates and allowed to recover overnight at 37° C. with 5% CO2. After 24 hrs of compound treatment in serum free DMEM cell culture medium, cells were washed with PBS and lysed in 100 ul RIPA buffer (Teknova) supplemented with protease inhibitors and subsequently mixed with fluorescent standards as per manufacturer's specifications, followed by denaturation at 95° C. for 5 minutes. Anti-PCSK9 mAb antibody (Abbomax, Cat. No. 601-650) was used for PCSK9 detection. The reported DC50 values represent the effective concentration of compound to lower PCSK9 protein levels, pro and mature, by 50%.
In general terms: Immunoblotting shows a protein as a band on a membrane.

The mark [2] stands for this setting: mature PCSK9 protein level lowered by 50%.
Setting [3] is: pro PCSK9 protein level lowered by 50%.
Where [4] appears, read: mature PCSK9 protein level lowered by 50%, read-out: PCSK9 DC50 (Mature).
Where [5] appears, read: pro PCSK9 protein level lowered by 50%, read-out: PCSK9 DC50 (Pro).

Values joined by “and” are separate entries in the source; they are usually repeats but may differ in a detail not shown here. Equal entries are not always repeated. Where two headings read alike, the source gives them in different places.

Chain of PCSK9 (Q8NBP7 153-692): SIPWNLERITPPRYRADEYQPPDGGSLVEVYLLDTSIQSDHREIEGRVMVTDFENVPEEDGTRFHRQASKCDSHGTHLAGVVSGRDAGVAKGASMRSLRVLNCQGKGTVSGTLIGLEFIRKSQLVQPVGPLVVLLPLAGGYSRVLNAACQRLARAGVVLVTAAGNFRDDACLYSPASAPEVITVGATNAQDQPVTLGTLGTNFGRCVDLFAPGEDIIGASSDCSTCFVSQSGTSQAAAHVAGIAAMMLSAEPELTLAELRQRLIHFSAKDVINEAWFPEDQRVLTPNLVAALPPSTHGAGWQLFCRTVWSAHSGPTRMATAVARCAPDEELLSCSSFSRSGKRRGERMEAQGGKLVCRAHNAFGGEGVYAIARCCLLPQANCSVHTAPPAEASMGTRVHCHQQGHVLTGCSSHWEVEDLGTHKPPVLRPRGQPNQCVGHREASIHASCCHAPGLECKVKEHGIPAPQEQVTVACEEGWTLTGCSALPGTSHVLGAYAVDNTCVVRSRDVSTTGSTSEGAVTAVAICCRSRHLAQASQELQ

As for `CC(C)C[C@H](NC(=O)[C@@H](O)[C@H](N)Cc1ccccc1)C(=O)NCCOCCOCCOc1cc2c(cc1Oc1ccc(-c3ccc(C(=O)O)cc3)c(F)c1)[C@@](C)(CC(=O)Nc1nccs1)NCC2` [Example 95, 4′-(((R)-6-(((11S,14S,15R)-15-amino-14-hydroxy-11-isobutyl-10,13-dioxo-16-phenyl-3,6-dioxa-9,12-diazahexadecyl)oxy)-1-methyl-1-(2-oxo-2-(thiazol-2-ylamino)ethyl)-1,2,3,4-tetrahydroisoquinolin-7-yl)oxy)-2′-fluoro-[1,1′-biphenyl]-4-carboxylic acid], on PCSK9, the IC50 amounted to 107 nM. Moreover, in test [1] (setting [2]), the “PCSK9 DC50 (Mature) μM” value is “inactive”. Besides, in test [1] (setting [3]), the “PCSK9 DC50 (Pro) μM” value is recorded as “Inactive”.

Turning to `CC(C)C[C@H](NC(=O)[C@@H](O)[C@H](N)Cc1ccccc1)C(=O)NCCOCCOCCOCCOc1cc2c(cc1Oc1ccc(-c3ccc(C(=O)O)cc3)c(F)c1)[C@@](C)(CC(=O)Nc1nccs1)NCC2` [Example 97, 4′-(((R)-6-(((14S,17S,18R)-18-amino-17-hydroxy-14-isobutyl-13,16-dioxo-19-phenyl-3,6,9-trioxa-12,15-diazanonadecyl)oxy)-1-methyl-1-(2-oxo-2-(thiazol-2-ylamino)ethyl)-1,2,3,4-tetrahydroisoquinolin-7-yl)oxy)-2′-fluoro-[1,1′-biphenyl]-4-carboxylic acid], the IC50 on PCSK9 was 130 nM. Besides, the “PCSK9 DC50 (Mature) μM” value in test [1] (setting [2]) was “inactive”. For the same compound, the “PCSK9 DC50 (Pro) μM” value in test [1] (setting [3]) is on record as “Inactive”.

On to `C[C@]1(CC(=O)Nc2nccs2)NCCc2cc(OCCOCCOCCNC(=O)CC34CC5CC(CC(C5)C3)C4)c(Oc3ccc(-c4ccc(C(=O)O)cc4)c(F)c3)cc21` [Example 94, 4-(((R)-6-(2-(2-(2-(2-((3r,5r,7r)-adamantan-1-yl)acetamido)ethoxy)ethoxy)ethoxy)-1-methyl-1-(2-oxo-2-(thiazol-2-ylamino)ethyl)-1,2,3,4-tetrahydroisoquinolin-7-yl)oxy)-2′-fluoro-[1,1′-biphenyl]-4-carboxylic acid], for which, at PCSK9, the IC50 was found to be 76.9 nM. Besides, the results for the DC50 in test [1] (setting [4]) and in test [1] (setting [5]) were 8520 nM and 1360 nM, respectively.

As for `CC(C)(C)OC(=O)/N=C(/NCCC[C@H](NC(=O)OC(C)(C)C)C(=O)NCCOCCOCCOCCOc1cc2c(cc1Oc1ccc(-c3ccc(C(=O)O)cc3)c(F)c1)[C@@](C)(CC(=O)Nc1nccs1)NCC2)NC(=O)OC(C)(C)C` [Example 99, 4′-(((R)-6-(((S,Z)-6,11-bis((tert-butoxycarbonyl)amino)-2,2-dimethyl-4,12-dioxo-3,16,19,22-tetraoxa-5,7,13-triazatetracos-5-en-24-yl)oxy)-1-methyl-1-(2-oxo-2-(thiazol-2-ylamino)ethyl)-1,2,3,4-tetrahydroisoquinolin-7-yl)oxy)-2′-fluoro-[1,1′-biphenyl]-4-carboxylic acid], on PCSK9, the IC50 amounted to 718 nM. Moreover, the DC50 in test [1] (setting [4]) was determined as 9000 nM; in test [1] (setting [5]), 1370 nM.

Turning to `CC(C)C[C@@H](NC(=O)[C@H](O)[C@@H](N)Cc1ccccc1)C(=O)NCCOCCOc1cc2c(cc1Oc1ccc(-c3ccc(C(=O)O)cc3)c(F)c1)[C@@](C)(CC(=O)Nc1nccs1)NCC2` [Example 100, 4′-(((R)-6-(2-(2-((R)-2-((2R,3S)-3-amino-2-hydroxy-4-phenylbutanamido)-4-methylpentanamido)ethoxy)ethoxy)-1-methyl-1-(2-oxo-2-(thiazol-2-ylamino)ethyl)-1,2,3,4-tetrahydroisoquinolin-7-yl)oxy)-2′-fluoro-[1,1′-biphenyl]-4-carboxylic acid], the IC50 on PCSK9 was determined as 96.4 nM. Moreover, the “PCSK9 DC50 (Mature) μM” value in test [1] (setting [2]) is “inactive”. In addition, the “PCSK9 DC50 (Pro) μM” value in test [1] (setting [3]) was “Inactive”.

Regarding `CC(C)Cc1ccc([C@H](C)C(=O)NCCOCCOCCOc2cc3c(cc2Oc2ccc(-c4ccc(C(=O)O)cc4)c(F)c2)[C@@](C)(CC(=O)Nc2nccs2)NCC3)cc1` [Example 93], the IC50 at PCSK9 is 188 nM and 578 nM. In addition, the values for the DC50 in test [1] (setting [4]) and in test [1] (setting [5]) were 4240 nM and 6180 nM, respectively.

Take `CC(C)Cc1ccc([C@H](C)C(=O)NCCOCCOCCOCCOc2cc3c(cc2Oc2ccc(-c4ccc(C(=O)O)cc4)c(F)c2)[C@@](C)(CC(=O)Nc2nccs2)NCC3)cc1` [Example 98, 2′-fluoro-4′-(((R)-6-(((S)-14-(4-isobutylphenyl)-13-oxo-3,6,9-trioxa-12-azapentadecyl)oxy)-1-methyl-1-(2-oxo-2-(thiazol-2-ylamino)ethyl)-1,2,3,4-tetrahydroisoquinolin-7-yl)oxy)-[1,1′-biphenyl]-4-carboxylic acid]: the IC50 at PCSK9 was 260 nM. Moreover, the DC50 in test [1] (setting [4]) came to 5070 nM; in test [1] (setting [5]) it was 6080 nM.

Take `Cc1ncsc1-c1ccc(CNC(=O)[C@@H]2C[C@@H](O)CN2C(=O)[C@@H](NC(=O)COCCOCCOCC(=O)NCCOCCOc2cc3c(cc2Oc2ccc(-c4ccc(C(=O)O)cc4)c(F)c2)[C@@](C)(CC(=O)Nc2nccs2)NCC3)C(C)(C)C)cc1` [Example 103, 2′-fluoro-4′-(((R)-6-(((S)-19-((2S,4R)-4-hydroxy-2-((4-(4-methylthiazol-5-yl)benzyl)carbamoyl)pyrrolidine-1-carbonyl)-20,20-dimethyl-7,17-dioxo-3,9,12,15-tetraoxa-6,18-diazahenicosyl)oxy)-1-methyl-1-(2-oxo-2-(thiazol-2-ylamino)ethyl)-1,2,3,4-tetrahydroisoquinolin-7-yl)oxy)-[1,1′-biphenyl]-4-carboxylic acid]: the IC50 on PCSK9 is 162 nM. Besides, the “PCSK9 DC50 (Mature) μM” value in test [1] (setting [2]) is “inactive”. For the same compound, the “PCSK9 DC50 (Pro) μM” value in test [1] (setting [3]) is “Inactive”.

With `C[C@]1(CC(=O)Nc2nccs2)NCCc2cc(OCCOCCNC(=O)CC34CC5CC(CC(C5)C3)C4)c(Oc3ccc(-c4ccc(C(=O)O)cc4)c(F)c3)cc21` [Example 104, 4′-(((R)-6-(2-(2-(2-((3r,5r,7r)-adamantan-1-yl)acetamido)ethoxy)ethoxy)-1-methyl-1-(2-oxo-2-(thiazol-2-ylamino)ethyl)-1,2,3,4-tetrahydroisoquinolin-7-yl)oxy)-2′-fluoro-[1,1′-biphenyl]-4-carboxylic acid], the IC50 at PCSK9 was determined as 222 nM. The values for the DC50 in test [1] (setting [4]) and in test [1] (setting [5]) were 7520 nM and 1530 nM, respectively.

Take `COC(=O)c1ccc(-c2ccc(Oc3cc4c(cc3OCCOCCNC(=O)COCC(=O)N[C@H](C(=O)N3C[C@H](O)C[C@H]3C(=O)NCc3ccc(-c5scnc5C)cc3)C(C)(C)C)CCN[C@]4(C)CC(=O)Nc3nccs3)cc2F)cc1` [Example 107, methyl 2′-fluoro-4′-(((R)-6-(((S)-13-((2S,4R)-4-hydroxy-2-((4-(4-methylthiazol-5-yl)benzyl)carbamoyl)pyrrolidine-1-carbonyl)-14,14-dimethyl-7,11-dioxo-3,9-dioxa-6,12-diazapentadecyl)oxy)-1-methyl-1-(2-oxo-2-(thiazol-2-ylamino)ethyl)-1,2,3,4-tetrahydroisoquinolin-7-yl)oxy)-[1,1′-biphenyl]-4-carboxylate]: the IC50 on PCSK9 turned out to be 831 nM. Moreover, the “PCSK9 DC50 (Mature) μM” value in test [1] (setting [2]) is “inactive”. Besides, the “PCSK9 DC50 (Pro) μM” value in test [1] (setting [3]) is “Inactive”.

In the case of `CC(C)Cc1ccc([C@H](C)C(=O)NCCOCCOc2cc3c(cc2Oc2ccc(-c4ccc(C(=O)O)cc4)c(F)c2)[C@@](C)(CC(=O)Nc2nccs2)NCC3)cc1` [Example 108], the IC50 on PCSK9 was found to be 578 nM. The “PCSK9 DC50 (Mature) μM” value in test [1] (setting [2]) is “inactive”. Besides, the “PCSK9 DC50 (Pro) μM” value in test [1] (setting [3]) is listed as “Inactive”.

For `Cc1ncsc1-c1ccc(CNC(=O)[C@@H]2C[C@@H](O)CN2C(=O)[C@@H](NC(=O)COCCOCC(=O)NCCOCCOc2cc3c(cc2Oc2ccc(-c4ccc(C(=O)O)cc4)c(F)c2)[C@@](C)(CC(=O)Nc2nccs2)NCC3)C(C)(C)C)cc1` [Example 102, 2′-fluoro-4′-(((R)-6-(((S)-16-((2S,4R)-4-hydroxy-2-((4-(4-methylthiazol-5-yl)benzyl)carbamoyl)pyrrolidine-1-carbonyl)-17,17-dimethyl-7,14-dioxo-3,9,12-trioxa-6,15-diazaoctadecyl)oxy)-1-methyl-1-(2-oxo-2-(thiazol-2-ylamino)ethyl)-1,2,3,4-tetrahydroisoquinolin-7-yl)oxy)-[1,1′-biphenyl]-4-carboxylic acid], at PCSK9, the IC50 is 162 nM. Besides, the “PCSK9 DC50 (Mature) μM” value in test [1] (setting [2]) was “inactive”. Further, the “PCSK9 DC50 (Pro) μM” value in test [1] (setting [3]) is given as “Inactive”.
